From patent US12310962B2, “Methods and compositions for treating cancer” (Zetagen Therapeutics, Inc., priority 2019, dated 2025)
Entries after “also recorded” stand apart in the source; their conditions may differ.

Key:
[1] = system: osteosarcoma cells (SaOS2); assay: LDH release cytotoxicity assay; format: cell-based; conditions: naloxone added for 3 hours, LDH release at 24 hours post-treatment, corrected for cell number, p<0.001
BT20 = assay: Cell number after 72 hours of naloxone treatment; conditions: highest dose
[2] = system: triple negative breast cancer (TNBC) cells BT474; assay: Cell number after 72 hours of naloxone treatment; format: cell-based; conditions: BT474; 72 h exposure; dose dependent
[3] = Cell number after 72 hours of naloxone treatment; format: cell-based; conditions: cells printed as "90"; highest dose; after 72 hours
BT474 TNBC cells = assay: Tumor spheroid assay; format: cell-based; conditions: 1-5 mM, dose dependent
Protocol: (§1) FIGS. 3A-3C depict a spheroid assay showing that naloxone (an OGFR antagonist) treatment decreases tumor size in vitro. […] FIG. 3B depicts a graph showing quantification of the size of the spheroids formed in the spheroid assay described in FIG. 3A as percent change in spheroid area fraction between time 0 and 120 hours after treatment. FIG. 3C depicts a graph showing quantification of the size of the spheroids formed in the spheroid assay described in FIG. 3A as percent change in cell area fraction in each spheroid at 120 hours after treatment.
(§2) Malignant tumors are characterized by invasion of surrounding normal tissues, and the spheroid assay is a simple micro-plate method (based on uniform, self-assembling 3D tumor spheroids) that is routinely used to assess tumor growth. The effects of anti-tumor efficacy were determined by quantifying the size of the spheroids formed in the and calculate percent change in spheroid area fraction between time 0 and 120 hours after treatment as shown in FIG. 3B. The anti-tumor efficacy was also determined by quantifying the percent change in cell area fraction in each spheroid at 120 hours after treatment as determined by staining the cells with crystal violet as shown in FIG. 3C.

SaOS2 osteosarcoma cells = assay: Tumor spheroid assay; format: cell-based; conditions: 1-5 mM, dose dependent
Protocol: as §1, §2

[4] = system: non-tumor cells, breast epithelium (HUMEC) or vascular endothelium (HUVEC); assay: Cell number of non-tumor control cells versus naloxone dose; format: cell-based; conditions: 72 h
[5] = system: breast cancer cells (BT20); assay: LDH release cytotoxicity assay; format: cell-based; conditions: naloxone added for 3 hours, LDH release at 24 hours post-treatment, corrected for cell number, p<0.001
SaOS2 cells = assay: Cell number after 72 hours of naloxone treatment; conditions: highest dose
[6] = system: breast cancer cells (BT474); assay: LDH release cytotoxicity assay; format: cell-based; conditions: naloxone added for 3 hours, LDH release at 24 hours post-treatment, corrected for cell number, p<0.001
[7] = between time 0 and 120 hours after treatment

## C=CCN1CC[C@]23c4c5ccc(O)c4O[C@H]2C(=O)CC[C@@]3(O)[C@H]1C5 [Naloxone, naloxone]
[1]
  increase in LDH values relative to normal (non-tumor) cells: 6 fold
BT20
  decrease in cell number: 90%
[2]
  number of metabolically active cells compared to control non-tumor cells (HUMEC, HUVEC): significant reduction
[3]
  decrease in cell number: 90%
BT474 TNBC cells; 120 hours after treatment
  tumor mass cellularity (percent change in cell area fraction, crystal violet): decreased
BT474 TNBC cells; [7]
  size of the tumor masses (percent change in spheroid area fraction): reduced tumor growth; also recorded: decreased the size of the tumor masses
SaOS2 osteosarcoma cells; 120 hours after treatment
  tumor mass cellularity (percent change in cell area fraction, crystal violet): decreased
SaOS2 osteosarcoma cells; [7]
  size of the tumor masses (percent change in spheroid area fraction): decreased the size of the tumor masses
[4]
  dose up to which a non-tumor cell sparing effect is provided: ≤ 2.5 mM
[5]
  increase in LDH values relative to normal (non-tumor) cells: 6 fold
SaOS2 cells
  decrease in cell number: 60%
[6]
  increase in LDH values relative to normal (non-tumor) cells: 3 fold
